pIC50: −log10 of the molar value.
Assays:
[1] = biological target: T1, Cyclin-dependent kinase 4/6 (Homo sapiens) (UniProt P11802+Q00534); experiment: Inhibition of CDK4/CDK6 signaling pathway in human MDA-MB-231 cells assessed as reduction of RB phosphorylation at Ser780 residue level at 1 to 8 uM incubated for 24 hrs by western blot assay; assay type: cell-based; details: dose 1-8 µM
[2] = biological target: T1, Cyclin-dependent kinase 4/6 (Homo sapiens); experiment: Inhibition of CDK4/CDK6 signaling pathway in human MDA-MB-231 cells assessed as inhibition of CDK6 expression level at 1 to 8 uM incubated for 24 hrs by western blot assay; assay type: cell-based; details: dose 1-8 µM
[3] = biological target: T1, Cyclin-dependent kinase 4/6 (Homo sapiens); experiment: Inhibition of CDK4/CDK6 signaling pathway in human MDA-MB-231 cells assessed as inhibition of CDK4 expression level at 1 to 8 uM incubated for 24 hrs by western blot assay; assay type: cell-based; details: dose 1-8 µM
MDA-MB-231 [4] = experiment: Antiproliferative activity against human MDA-MB-231 cells assessed as inhibition of cell growth incubated for 72 hrs by MTT assay; assay type: functional, cell-based; details: MDA-MB-231, 72 h
A549 = experiment: Antiproliferative activity against human A549 cells assessed as inhibition of cell growth incubated for 72 hrs by MTT assay; assay type: functional, cell-based; details: A549, 72 h
MCF7 [5] = experiment: Antiproliferative activity against human MCF7 cells assessed as inhibition of cell growth incubated for 72 hrs by MTT assay; assay type: functional, cell-based; details: MCF7, 72 h
HepG2 = experiment: Antiproliferative activity against human HepG2 cells assessed as inhibition of cell growth incubated for 72 hrs by MTT assay; assay type: functional, cell-based; details: HepG2, 72 h
MCF7 [6] = experiment: Antiproliferative activity against palbociclib-resistant human MCF7 cells assessed as inhibition of cell growth incubated for 72 hrs by MTT assay; assay type: functional, cell-based; details: MCF7, 72 h
[7] = Resistance factor, ratio of IC50 for palbociclib-resistant human MCF7 cells to IC50 for human MCF7 cells; assay type: functional
[8] = biological target: Cyclin-dependent kinase 4 (Homo sapiens, UniProt P11802); experiment: Covalent inhibition of CDK4 (unknown origin) using histone H1 as substrate incubated for 10 mins in presence of [gamma-32P]ATP by radioactivity based kinase assay
[9] = biological target: Cyclin-dependent kinase 6 (Homo sapiens, UniProt Q00534); experiment: Covalent inhibition of CDK6 (unknown origin) using histone H1 as substrate incubated for 10 mins in presence of [gamma-32P]ATP by radioactivity based kinase assay
[10] = biological target: Cyclin-dependent kinase 9 (Homo sapiens, UniProt P50750); experiment: Covalent inhibition of CDK9 (unknown origin) using histone H1 as substrate incubated for 10 mins in presence of [gamma-32P]ATP by radioactivity based kinase assay
[11] = biological target: Cyclin-dependent kinase 12 (Homo sapiens, UniProt Q9NYV4); experiment: Covalent inhibition of CDK12 (unknown origin) using histone H1 as substrate incubated for 10 mins in presence of [gamma-32P]ATP by radioactivity based kinase assay
MDA-MB-231 [12] = experiment: Induction of apoptosis in human MDA-MB-231 cells assessed as viable cells at 10 uM incubated for 24 hrs by annexin V-FITC/propidium iodide staining based flow cytometry analysis (reference value: 96.5%); assay type: functional; details: read-out: Activity
MDA-MB-231 [13] = experiment: Induction of apoptosis in human MDA-MB-231 cells assessed as early apoptotic cells at 10 uM incubated for 24 hrs by annexin V-FITC/propidium iodide staining based flow cytometry analysis (reference value: 3.39%); assay type: functional
MDA-MB-231 [14] = experiment: Induction of apoptosis in human MDA-MB-231 cells assessed as late apoptotic cells at 10 uM incubated for 24 hrs by annexin V-FITC/propidium iodide staining based flow cytometry analysis (reference value: 0.113%); assay type: functional
MDA-MB-231 [15] = experiment: Induction of apoptosis in human MDA-MB-231 cells assessed as necrotic cells at 10 uM incubated for 24 hrs by annexin V-FITC/propidium iodide staining based flow cytometry analysis (reference value: 0.034%); assay type: functional
MDA-MB-231 [16] = experiment: Cell cycle arrest in human MDA-MB-231 cells assessed as accumulation of cells at G0/G1 phase at 10 uM incubated for 24 hrs by propidium iodide staining based assay (reference value: 54.43%); assay type: functional
MDA-MB-231 [17] = experiment: Cell cycle arrest in human MDA-MB-231 cells assessed as accumulation of cells at G2/M phase at 10 uM incubated for 24 hrs by propidium iodide staining based assay (reference value: 20.49%); assay type: functional
MDA-MB-231 [18] = experiment: Cell cycle arrest in human MDA-MB-231 cells assessed as accumulation of cells at S phase at 10 uM incubated for 24 hrs by propidium iodide staining based assay (reference value: 25.09%); assay type: functional
MDA-MB-231 [19] = experiment: Induction of apoptosis in human MDA-MB-231 cells assessed as apoptosis rate at 10 uM incubated for 24 hrs by annexin V-FITC/propidium iodide staining based flow cytometry analysis; assay type: functional

Sequence of Cyclin-dependent kinase 12 (Q9NYV4 whole entry): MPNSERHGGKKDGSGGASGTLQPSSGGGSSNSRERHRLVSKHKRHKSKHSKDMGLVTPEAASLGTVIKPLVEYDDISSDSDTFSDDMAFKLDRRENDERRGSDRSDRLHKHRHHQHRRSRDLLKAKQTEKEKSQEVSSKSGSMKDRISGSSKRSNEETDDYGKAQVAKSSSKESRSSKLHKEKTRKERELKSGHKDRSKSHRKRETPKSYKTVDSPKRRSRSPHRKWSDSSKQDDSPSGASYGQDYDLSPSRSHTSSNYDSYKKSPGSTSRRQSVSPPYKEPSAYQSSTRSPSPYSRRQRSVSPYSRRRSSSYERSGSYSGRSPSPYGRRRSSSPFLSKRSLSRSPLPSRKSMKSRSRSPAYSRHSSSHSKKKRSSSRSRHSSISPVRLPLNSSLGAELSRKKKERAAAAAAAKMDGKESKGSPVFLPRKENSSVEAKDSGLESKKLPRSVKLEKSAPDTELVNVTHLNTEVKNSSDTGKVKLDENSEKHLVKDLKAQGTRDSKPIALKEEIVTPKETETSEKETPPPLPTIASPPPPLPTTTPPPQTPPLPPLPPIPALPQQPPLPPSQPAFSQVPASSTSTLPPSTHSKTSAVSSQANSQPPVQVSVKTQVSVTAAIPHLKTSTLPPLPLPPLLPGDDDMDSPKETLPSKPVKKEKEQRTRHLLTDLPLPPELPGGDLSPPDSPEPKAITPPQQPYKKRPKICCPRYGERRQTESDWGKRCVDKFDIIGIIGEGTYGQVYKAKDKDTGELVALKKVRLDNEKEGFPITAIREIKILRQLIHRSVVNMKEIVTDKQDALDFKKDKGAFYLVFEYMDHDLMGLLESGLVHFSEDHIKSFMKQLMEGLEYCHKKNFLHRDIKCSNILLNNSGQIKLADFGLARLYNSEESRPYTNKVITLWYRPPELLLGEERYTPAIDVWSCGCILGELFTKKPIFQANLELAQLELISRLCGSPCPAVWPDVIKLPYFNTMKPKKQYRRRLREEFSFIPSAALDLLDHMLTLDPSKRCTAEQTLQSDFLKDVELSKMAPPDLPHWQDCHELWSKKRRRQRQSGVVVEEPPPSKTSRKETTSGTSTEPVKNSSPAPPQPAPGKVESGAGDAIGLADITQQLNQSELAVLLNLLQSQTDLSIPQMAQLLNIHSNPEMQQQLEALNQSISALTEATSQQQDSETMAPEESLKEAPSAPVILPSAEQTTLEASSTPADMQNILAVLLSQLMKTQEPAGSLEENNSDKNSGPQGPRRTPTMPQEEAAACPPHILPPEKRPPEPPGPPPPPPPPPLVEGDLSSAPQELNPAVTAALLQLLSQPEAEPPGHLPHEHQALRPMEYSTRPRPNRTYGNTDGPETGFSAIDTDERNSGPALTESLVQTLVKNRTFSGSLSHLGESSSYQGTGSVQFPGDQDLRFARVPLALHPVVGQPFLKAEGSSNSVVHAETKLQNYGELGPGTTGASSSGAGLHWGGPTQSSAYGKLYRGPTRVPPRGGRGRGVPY
T1 sequence (P11802 whole entry, looked up): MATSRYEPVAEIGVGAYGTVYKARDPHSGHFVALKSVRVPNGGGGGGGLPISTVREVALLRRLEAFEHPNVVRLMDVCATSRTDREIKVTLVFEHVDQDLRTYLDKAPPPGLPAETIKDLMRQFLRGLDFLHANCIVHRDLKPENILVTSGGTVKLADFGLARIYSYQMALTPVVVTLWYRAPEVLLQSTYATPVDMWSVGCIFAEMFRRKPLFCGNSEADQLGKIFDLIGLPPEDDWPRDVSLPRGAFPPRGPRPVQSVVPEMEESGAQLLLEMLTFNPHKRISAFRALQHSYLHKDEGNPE
T1 sequence (Q00534 whole entry, looked up): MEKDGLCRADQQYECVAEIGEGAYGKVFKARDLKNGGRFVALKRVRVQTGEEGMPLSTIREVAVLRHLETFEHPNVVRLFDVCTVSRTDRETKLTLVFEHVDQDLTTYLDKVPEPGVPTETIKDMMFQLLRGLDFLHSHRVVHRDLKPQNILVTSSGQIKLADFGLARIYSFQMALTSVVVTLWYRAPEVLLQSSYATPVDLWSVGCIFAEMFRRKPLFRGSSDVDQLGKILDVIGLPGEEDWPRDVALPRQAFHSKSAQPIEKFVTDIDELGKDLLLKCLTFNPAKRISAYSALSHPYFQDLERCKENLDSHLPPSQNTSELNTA
Sequence of Cyclin-dependent kinase 4 (P11802 whole entry): as the sequence (P11802 whole entry, looked up) above
Sequence of Cyclin-dependent kinase 6 (Q00534 whole entry): as the sequence (Q00534 whole entry, looked up) above
Sequence of Cyclin-dependent kinase 9 (P50750 whole entry): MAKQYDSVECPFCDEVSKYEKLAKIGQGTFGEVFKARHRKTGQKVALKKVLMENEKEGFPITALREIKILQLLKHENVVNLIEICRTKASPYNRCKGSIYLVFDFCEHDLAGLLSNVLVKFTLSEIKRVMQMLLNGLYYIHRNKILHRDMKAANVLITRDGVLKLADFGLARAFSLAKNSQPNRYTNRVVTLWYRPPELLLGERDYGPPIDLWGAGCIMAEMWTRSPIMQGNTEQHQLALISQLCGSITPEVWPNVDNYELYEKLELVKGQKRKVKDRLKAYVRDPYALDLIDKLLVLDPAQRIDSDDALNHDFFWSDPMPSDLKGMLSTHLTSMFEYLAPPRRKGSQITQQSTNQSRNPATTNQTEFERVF

Row | Structure (SMILES) | pIC50 (MDA-MB-231 [4]) | pIC50 (A549) | pIC50 (MCF7 [5]) | pIC50 (HepG2) | other results
1 | CC(=O)c1c(C)c2cnc(Nc3ccc(N4CCN(C(=O)/C=C/C(F)(F)F)CC4)cn3)nc2n(C2CCCC2)c1=O | 6.29 | 5.81 | 6.32 | 5.29 | inhibition [1]: Dose-Dependent Effect; inhibition [2]: Dose-Dependent Effect; inhibition [3]: Dose-Dependent Effect; pIC50 (MCF7 [6]): 6.28; Ratio IC50 [7]: 1.1; pIC50 [8]: 7.74; pIC50 [9]: 7.89; pIC50 [10]: < 6.00; pIC50 [11]: < 6.00; viability at 10 µM (MDA-MB-231 [12]): 20.6%; Activity (MDA-MB-231 [13]): 62.3%; Activity (MDA-MB-231 [14]): 16.7%; Activity (MDA-MB-231 [15]): 0.445%; Activity (MDA-MB-231 [16]): 68.69%; Activity (MDA-MB-231 [17]): 10.14%; Activity (MDA-MB-231 [18]): 21.16%; Activity (MDA-MB-231 [19]): 79%
2 | COc1cc(/C=C/C(=O)N2CCN(c3ccc(Nc4ncc5c(C)c(C(C)=O)c(=O)n(C6CCCC6)c5n4)nc3)CC2)ccc1O | 5.05 | < 4.70 | < 4.70 | < 4.70 | –
3 | COc1ccc(/C=C/C(=O)NCCC(=O)N2CCN(c3ccc(Nc4ncc5c(C)c(C(C)=O)c(=O)n(C6CCCC6)c5n4)nc3)CC2)cc1OC | 5.14 | 4.93 | < 4.70 | 5.00 | –
4 | COc1ccc(/C=C/C(=O)NCCCC(=O)N2CCN(c3ccc(Nc4ncc5c(C)c(C(C)=O)c(=O)n(C6CCCC6)c5n4)nc3)CC2)cc1OC | < 4.70 | 4.89 | < 4.70 | 4.86 | –
5 | CC(=O)c1c(C)c2cnc(Nc3ccc(N4CCN(C(=O)/C(C#N)=C/c5ccccc5)CC4)cn3)nc2n(C2CCCC2)c1=O | 5.25 | 5.02 | 6.38 | 5.04 | pIC50 [8]: 7.60; pIC50 [9]: 7.72; pIC50 [10]: < 6.00; pIC50 [11]: < 6.00; viability at 10 µM (MDA-MB-231 [12]): 36.5%; Activity (MDA-MB-231 [13]): 52.1%; Activity (MDA-MB-231 [14]): 11%; Activity (MDA-MB-231 [15]): 0.425%; Activity (MDA-MB-231 [16]): 63.83%; Activity (MDA-MB-231 [17]): 11.59%; Activity (MDA-MB-231 [18]): 24.58%; Activity (MDA-MB-231 [19]): 63.1%
6 | CC(=O)c1c(C)c2cnc(Nc3ccc(N4CCN(C(=O)/C=C/C5CC5)CC4)cn3)nc2n(C2CCCC2)c1=O | 5.11 | 4.75 | 5.88 | < 4.70 | –
7 | C=CC(=O)N1CCN(c2ccc(Nc3ncc4c(C)c(C(C)=O)c(=O)n(C5CCCC5)c4n3)nc2)CC1 | 5.28 | 5.01 | 6.21 | 5.02 | pIC50 [8]: 7.64; pIC50 [9]: 7.82; pIC50 [10]: < 6.00; pIC50 [11]: 6.05; viability at 10 µM (MDA-MB-231 [12]): 43.8%; Activity (MDA-MB-231 [13]): 40.3%; Activity (MDA-MB-231 [14]): 15.2%; Activity (MDA-MB-231 [15]): 0.689%; Activity (MDA-MB-231 [16]): 60.21%; Activity (MDA-MB-231 [17]): 13.78%; Activity (MDA-MB-231 [18]): 26.01%; Activity (MDA-MB-231 [19]): 55.5%
8 | COc1ccc(/C=C/C(=O)N2CCN(c3ccc(Nc4ncc5c(C)c(C(C)=O)c(=O)n(C6CCCC6)c5n4)nc3)CC2)cc1OC | < 4.70 | 4.79 | 5.73 | < 4.70 | –
9 | COc1cc(/C=C/C(=O)NCC(=O)N2CCN(c3ccc(Nc4ncc5c(C)c(C(C)=O)c(=O)n(C6CCCC6)c5n4)nc3)CC2)ccc1O | 5.20 | 4.92 | < 4.70 | 4.98 | –
10 | C/C=C/C(=O)N1CCN(c2ccc(Nc3ncc4c(C)c(C(C)=O)c(=O)n(C5CCCC5)c4n3)nc2)CC1 | 5.07 | 4.76 | 5.63 | < 4.70 | –

Now from value to compound, other results behind:

Row | pIC50 (MDA-MB-231 [4]) | pIC50 (A549) | pIC50 (MCF7 [5]) | pIC50 (HepG2) | Structure (SMILES) | other results
11 | 5.09 | < 4.70 | 5.57 | < 4.70 | COc1ccc(/C=C/C(=O)NCCCC(=O)N2CCN(c3ccc(Nc4ncc5c(C)c(C(C)=O)c(=O)n(C6CCCC6)c5n4)nc3)CC2)cc1O | –
12 | 5.05 | 4.84 | 5.63 | 4.93 | COc1ccc(/C=C/C(=O)NCC(=O)N2CCN(c3ccc(Nc4ncc5c(C)c(C(C)=O)c(=O)n(C6CCCC6)c5n4)nc3)CC2)cc1OC | –
13 | 5.17 | 4.84 | < 4.70 | 4.93 | CC(=O)c1c(C)c2cnc(Nc3ccc(N4CCN(C(=O)/C=C/c5ccccc5)CC4)cn3)nc2n(C2CCCC2)c1=O | –
14 | 5.25 | 5.09 | 6.11 | 5.00 | CC(=O)c1c(C)c2cnc(Nc3ccc(N4CCNCC4)cn3)nc2n(C2CCCC2)c1=O [PALBOCICLIB] | pIC50 (MCF7 [6]): 5.24; viability at 10 µM (MDA-MB-231 [12]): 24.8%; Activity (MDA-MB-231 [13]): 47.6%; Activity (MDA-MB-231 [14]): 26.1%; Activity (MDA-MB-231 [15]): 1.47%; Activity (MDA-MB-231 [16]): 71.23%; Activity (MDA-MB-231 [17]): 11.78%; Activity (MDA-MB-231 [18]): 16.99%; Activity (MDA-MB-231 [19]): 73.7%
15 | < 4.70 | 4.78 | < 4.70 | < 4.70 | COC(=O)/C=C/CN1CCN(c2ccc(Nc3ncc4c(C)c(C(C)=O)c(=O)n(C5CCCC5)c4n3)nc2)CC1 | –
